The values that follow are results of earlier work, collected in US12490952B2, “Combined sub-iliopsoas and subpectineal blocks—for hip surgery” (National Guard Health Affairs, priority 2020, dated 2025).

The conditions of this data set: local anesthetic, general background statement.

As for `CCN(CC)CCOC(=O)c1ccc(N)cc1Cl` [Chloroprocaine], the “duration of action (short-acting / intermediate duration)” value is 45 to 90 min.
